Data on 1 compound can be found in patent US9549985B2, “Compositions comprising polymers prepared from 2-hydroxyalkyl acids” (UNIVERSITE DE GENEVE, priority 2010, dated 2017).

A short description of the data set: Solubility of Haloperidol in the hexPLA matrix. In kind it is physicochemical. As to conditions: depends on polymer molecular weight.

As to `O=C(CCCN1CCC(O)(c2ccc(Cl)cc2)CC1)c1ccc(F)cc1` [Haloperidol], the “Solubility of Haloperidol in hexPLA matrix” value is reported as “dissolvable”.
